Measurements reported in patent US10561666B2, “Amido compounds as RORγt modulators and uses thereof” (New York University, priority 2010, dated 2020).

Assays:
[1] = target: T1, recombinant human RORγ LBD (Homo sapiens, UniProt P51449); test: In vitro competition assay, fluorescence polarization with labeled 25-hydroxycholesterol; type: binding; conditions: various concentrations
T1 construct: recombinant human RORγ LBD was loaded with fluorescently-labeled 25-hydroxycholesterol
T1 sequence (P51449 269-508 limits assumed): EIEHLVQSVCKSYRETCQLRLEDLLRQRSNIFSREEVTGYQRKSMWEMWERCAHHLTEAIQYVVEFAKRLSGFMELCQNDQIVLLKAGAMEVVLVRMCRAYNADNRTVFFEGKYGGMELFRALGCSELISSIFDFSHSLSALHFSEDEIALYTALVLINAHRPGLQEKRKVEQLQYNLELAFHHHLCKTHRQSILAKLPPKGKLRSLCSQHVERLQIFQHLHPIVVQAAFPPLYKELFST
Text: The presence of increasing concentrations of NCGC00166547 was correlated with displacement of the fluorescently-labeled 25-hydroxycholesterol from the LBD.

mouse Th17 polarization = test: Mouse Th17 polarization assay (IL-17a producing cells); type: cell-based; conditions: 20 μM, compared to DMSO treated cells, FACS (FIG. 3)
Procedure: Effects of compound derivatives at various concentrations on mouse Th17 polarization. Percentage of DMSO treated IL-17a producing cells was set at 100. Naive mouse CD4 T cells (CD25^−, CD62L^+, and CD44^int-high) were sorted and cultured with CD3/CD28 stimulatory antibodies in the presence of TGFβ (0.1 ng/ml) and IL6 (20 ng/ml). Compounds were added on Day 1 and cells were analyzed on Day 4. For intracellular cytokine staining, cells were incubated for 5 h with phorbol ester (50 ng/ml; Sigma), ionomycin (500 ng/ml; Sigma) and GolgiStop (BD). When needed, surfaces were stained by incubation for 15 min on ice with PECy7-conjugated CD4 (BD Biosciences). The Cytofix/Cytoperm buffer set (BD) was used for intracellular staining. Cells were fixed and made permeable for 30 min on ice and were stained for 30 min on ice in permeabilization buffer with Alexa647-conjugated anti-IL17 (eBioscience) and PE-conjugated anti-IFNg (eBioscience). An LSR II (BD Biosciences) and FlowJo software (Tree Star) were used for flow cytometry. RORg IC50 value acquired from the S2 cell reporter assay is listed for comparison.
(§1) Naive CD4 T cells (CD25^−, CD62L^+, and CD44^int-high) were sorted and cultured with CD3/CD28 stimulatory antibodies in the presence of TGFβ (0.1 ng/ml) and IL6 (20 ng/ml). Compounds were added on Day 1 and cells were analyzed on Day 4. For intracellular cytokine staining, cells were incubated for 5 h with phorbol ester (50 ng/ml; Sigma), ionomycin (500 ng/ml; Sigma) and GolgiStop (BD). When needed, surfaces were stained by incubation for 15 min on ice with PECy7-conjugated CD4 (BD Biosciences). The Cytofix/Cytoperm buffer set (BD) or FoxP3 staining kit (eBioscience) were used for intracellular staining. Cells were fixed and made permeable for 30 min on ice and were stained for 30 min on ice in permeabilization buffer with Alexa647-conjugated anti-IL17 (eBioscience), PE-conjugated anti-IFNg (eBioscience), and/or PE-conjugated anti-FoxP3 (eBioscience). An LSR II (BD Biosciences) and FlowJo software (Tree Star) were used for flow cytometry.

Th1 differentiation = test: Mouse Th1 differentiation counter-screen (IFNγ production); type: cell-based; conditions: 20 μM, naive CD4 T cells, IL12 and IL2 (FIG. 4)
Procedure: as §1
For Th1 differentiation, IL12 (10 ng/ml) and IL2 (10 U) was added to naive CD4 T cell cultures instead of TGFβ and IL6.

COc1cc(O)c(C(CC(=O)N2CCCC(C)C2)c2ccc3c(c2)OCO3)c(OC)c1 (stereo not drawn) [NCGC00166547]
binding to human RORγt (displacement of fluorescently-labeled 25-hydroxycholesterol) [1]: directly bind to human RORγt
mouse Th17 cell differentiation, as measured by IL17a production (mouse Th17 polarization): suppress mouse Th17 cell differentiation
Th1 differentiation, as measured by IFNγ production (Th1 differentiation): does not inhibit Th1 differentiation
